Assay results as given in PubChem BioAssay (NCI).
Values joined by “and” are separate entries in the source; they are usually repeats but may differ in a detail not shown here. Equal values may be shown once.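 Compound exposure: 48 hours, 5 concentrations, 96-well plates. Abbreviation: GI50, concentration required for 50% inhibition of growth. The concentration for full growth arrest is given as TGI.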

Experiments:
Test in all cases: NCI-60 cell line screen, 48 h
COLO 205 colon = system: COLO 205 colon
K-562 leukemia = system: K-562 leukemia
LOX IMVI melanoma = system: LOX IMVI melanoma
NCI-H226 lung = system: NCI-H226 lung
OVCAR-8 ovarian = system: OVCAR-8 ovarian
SN12C renal = system: SN12C renal
SR leukemia = system: SR leukemia
UO-31 renal = system: UO-31 renal
DU-145 prostate = system: DU-145 prostate
PC-3 prostate = system: PC-3 prostate

| SMILES | GI50 (COLO 205 colon) [µM] | TGI (COLO 205 colon) | GI50 (K-562 leukemia) [µM] | TGI (K-562 leukemia) [µM] | GI50 (LOX IMVI melanoma) [µM] | TGI (LOX IMVI melanoma) | GI50 (NCI-H226 lung) [µM] | TGI (NCI-H226 lung) [µM] | GI50 (OVCAR-8 ovarian) | TGI (OVCAR-8 ovarian) | GI50 (SN12C renal) [µM] | TGI (SN12C renal) | GI50 (SR leukemia) [µM] | TGI (SR leukemia) [µM] | GI50 (UO-31 renal) [µM] | TGI (UO-31 renal) [µM] | GI50 (DU-145 prostate) [µM] | TGI (DU-145 prostate) [µM] | GI50 (PC-3 prostate) [µM] | TGI (PC-3 prostate) [µM] |
| --- | --- | --- | --- | --- | --- | --- | --- | --- | --- | --- | --- | --- | --- | --- | --- | --- | --- | --- | --- | --- |
| CC(=O)[CH-]C(=O)Nc1ccccc1.CC(=O)[CH-]C(=O)Nc1ccccc1.CC[O-].CC[O-].[Ti+4] | > 100 | > 100 µM | > 100 | > 100 | > 100 | > 100 µM | > 100 | > 100 | > 100 µM | > 100 µM | > 100 | > 100 µM | > 100 | > 100 | > 100 | > 100 |  |  |  |  |
| CN1CCc2c1nc(-c1cccnc1)c1c2N(C)CC1 |  | > 100 µM |  | > 100 |  | > 100 µM |  |  |  | > 100 µM |  | > 100 µM |  |  |  | > 100 |  |  |  |  |
| N.N.N.N.N.O=S(=O)([O-])C(F)(F)F.O=S(=O)([O-])C(F)(F)F.[Os+8] | 10.9 | 25.4 µM | 7.51 | 61.5 | 4.74 | 20 µM | 2.59 | 8.69 | 13.5 µM | 86.7 µM | 12.7 | 37.3 µM |  |  | 12.8 | 30.7 |  |  |  |  |
| CCN(C(=O)CN1CCN(c2cc3c(cc2F)c(=O)c(C(=O)O)cn3CC)CC1)c1nc(-c2ccccc2)cs1 | 0.226 | 0.568 µM | 0.337 | > 100 | 0.325 | > 100 µM | 0.477 | > 100 | 0.364 µM | > 100 µM | 0.402 | > 100 µM |  |  | 0.266 | > 100 | 0.453 | > 100 | 0.362 | > 100 |
| COC(=O)C#CCC1CCCC1C1SCCS1 (stereo not drawn) |  | > 100 µM |  | > 100 |  | > 100 µM |  | > 100 |  | > 100 µM |  | > 100 µM |  | 84.3 |  | > 100 |  |  |  |  |
| O=C(N/C(=C\c1cc(Cl)ccc1Cl)c1nc2ccc(Cl)cc2[nH]1)c1ccccc1 |  | 33.6 µM |  | 41.1 |  | 26.4 µM |  | 42.4 |  | 31.6 µM |  | 34 µM |  | 25.5 |  | 24.4 |  |  |  |  |
| NCCC(=O)NC(Cc1cnc[nH]1)C(=O)O (stereo not drawn) |  | > 100 µM |  | > 100 |  | > 100 µM |  | > 100 |  | > 100 µM |  | > 100 µM |  |  |  | > 100 |  | > 100 |  | > 100 |
| CCN(CC)CCCC(C)Nc1c(Sc2cnc3cc(Cl)ccc3c2NC(C)CCCN(CC)CC)cnc2cc(Cl)ccc12 (stereo not drawn) |  | 2.88 µM |  | 3.7 |  | 3.36 µM |  | 3.52 |  | 3.15 µM |  | 3.53 µM |  |  |  | 35.5 |  |  |  |  |
| COc1cccc2c1[C@H]1CO[C@H]3C4C[C@H](C(=O)O)C([C@@H](C2)N13)N4C (stereo partly drawn) | 0.515 | 2.58 µM and 2.41 µM | 0.397 |  |  | 3.29 µM and > 23.9 µM |  | 5.59 | 2.81 µM and 0.888 µM | 7.05 µM and 34.4 µM | 0.884 | 8.32 µM and > 35.8 µM |  | 8.55 |  | 7.72 |  |  |  |  |
| CCCCc1c2c(nc3c1CCc1cc4cc5c(nc4nc1-3)-c1nc3c(c(CCCC)c1CC5)CCC/C3=C\c1ccccc1)/C(=C/c1ccccc1)CCC2 |  | > 100 µM |  | > 100 |  | > 100 µM |  | > 100 |  | > 100 µM |  | > 100 µM |  | > 100 |  | > 100 |  |  |  |  |
| O=C(COc1ccc(Cl)cc1)N1CCN(C(=O)COc2ccc(Cl)cc2)c2ccccc21 |  | > 100 µM |  | > 100 |  | > 100 µM |  |  |  | > 100 µM |  |  |  |  |  | 53.9 |  |  |  |  |
| COc1ccc(-c2onc(-c3c(C)cc(C)cc3C)c2C2=NCCN2)cc1 |  | 49 µM |  | > 100 |  | > 100 µM |  | 89.8 |  | > 100 µM |  | > 100 µM |  | > 100 |  | > 100 |  |  |  |  |
| CCN(CC)CCC(CNc1c(C)cnc2cc(Cl)ccc12)c1ccc(Cl)cc1 (stereo not drawn) |  |  |  |  |  |  | 16 | 31.5 | 10.8 µM | 25.5 µM | 12.8 | 28.8 µM | 0.0333 | 7.06 |  |  | 12.8 | 26 | 10.7 | 24 |
| CC(=O)NNc1nc(C)c(C(=O)/C=C/c2ccc(/C=C/C(=O)c3sc(NNC(C)=O)nc3C)cc2)s1 |  | > 100 µM |  | > 100 |  | > 100 µM |  | > 100 |  | > 100 µM |  | > 100 µM |  | > 100 |  | > 100 |  |  |  |  |
| C#C[C@H]1CCCCCC1O (stereo partly drawn) |  | > 100 µM |  | > 100 |  | > 100 µM |  | > 100 |  | > 100 µM |  | > 100 µM |  | > 100 |  | > 100 |  |  |  |  |
| O=c1c(-c2ccccc2)coc2cc(OC/C(=N/O)c3ccc(F)cc3)ccc12 | 18.9 | 50.7 µM | 16.2 | > 100 | 44.1 | > 100 µM | 25.1 | 77.7 | 16.9 µM | 43.4 µM | 16.2 | 34.2 µM |  |  | 17.4 | 50.2 | 17.4 | 36 | 19 | 45.9 |
| CC1=C(C(=O)Nc2ccc(F)c(Cl)c2)C(c2ccccc2O)NC(=O)N1 (stereo not drawn) | > 100 | > 100 µM | 58.1 | > 100 | 80.5 | > 100 µM | > 100 | > 100 | > 100 µM | > 100 µM | > 100 | > 100 µM |  |  | 80.7 | > 100 | > 100 | > 100 | 58.8 | > 100 |
| Nc1cc2cccc[n+]2c2cccc(Cl)c12 | 15.5 |  | 11.2 |  |  |  | 18 | 86 | 24.1 µM |  | 7.16 | 42.1 µM | 5.58 | 51.2 | 61.4 |  | 46.4 |  |  |  |
| Cc1nc2c(sc(=S)n2-c2ccccc2)c2nc3ccccc3n12 |  | > 100 µM |  | > 100 |  | > 100 µM |  | > 100 |  | > 100 µM |  | > 100 µM |  |  |  | > 100 |  |  |  |  |
| COc1cc2c(cc1-c1coc3cc(OCC=C(C)C)ccc3c1=O)OCO2 |  | > 100 µM |  | > 100 |  | 93.9 µM |  |  |  |  |  | > 100 µM |  | 33.3 |  | > 100 |  | > 100 |  | > 100 |
